According to patent US20260217712A1, “SOLID STATE FORMS OF MNK INHIBITORS” (4E Therapeutics, Inc., priority 2023, published 2026):
Several values for one entry are separate records, joined by “and”; a condition that tells them apart may be missing. Equal entries are not always repeated. Structures can show the parent of a compound that is named as a salt. Blank lines part the entries; values can stand above or below the compound they belong to.

How the values were obtained:
Format in all cases: physicochemical
[1] = Competitive slurries of Pattern 3 and Pattern 11, XRPD; details: for XRPD after 7 days / XRPD after 17 days: competitive slurry, solvent and temperature per sample; for XRPD after 7 days: 20 vol
Protocol: A solid mixture of Structure (I) Pattern 3 (from Lot B, 300 mg) and Pattern 11 (Sample 35-1, 300 mg) was mixed for 3 hours using a turbula mixer.
The solid mixture (30 mg) was suspended in solvent (dried with molecular sieves, 600 μL, 20 vol) and either stirred in the fridge, shaken at RT or 55° C. After 7 days, an aliquot of each suspension was analyzed by XRPD. Samples that were still a mixture of forms were placed back into fridge/shakers for a further 10 days and re-analyzed (results shown in Table 36).
Competitive slurry experiments at 55° C., along with one at 5° C., were repeated using a saturated solution as the solvent mixture to minimize dissolution that may have occurred at temperatures other than room temperature.
A saturated solution of THF/Water (9:1) (5 mL) with Structure (I) (from Lot B) was equilibrated at 55° C. overnight in a shaker. The solution was filtered using 0.45 μm nylon filter before use.
A solid mixture of Pattern 3 and Pattern 11 (30 mg) was suspended in the saturated solution (600 μL, 20 vol) and either stirred in the fridge (5° C.) or shaken at 55° C. After 1 day, aliquots of the suspensions were analyzed by XRPD. Both samples were placed back into fridge/shaker. After a total of 11 days, the samples were removed from fridge/shaker. Sample 38-2 was filtered before XRPD, Sample 38-1 was pipetted onto the XRPD holder and allowed to dry before analysis (solid passed through filter).

[2] = Static storage at 40° C./75% RH, XRPD and HPLC post storage; details: for HPLC purity post storage at 40° C./75% RH / XRPD post storage at 40° C./75% RH: 7 days; for stability to storage at 40° C./75% RH (in words): 40° C./75% RH (elevated temperature and humidity)
Protocol: Purity analysis was performed on an Agilent HP1100/Infinity II 1260 series system equipped with a diode array detector and using OpenLAB software. The full method details are provided below:
Poorly Crystalline Structure (I) (from Lot A, Free Form Pattern 1, 30 mg) was dissolved in 50 volumes of THF:Water 9:1 at 60° C. in 13 vials, stirring at 500 RPM (small amount of debris present). The solutions were then treated with 1.1 molar equivalents (90/180 μL) of selected counter-ions (Table 7). The resulting solutions were then cooled down to 5° C. at 0.1° C./min and were held at this temperature for 2 days. The suspensions were filtered and dried under suction for 20 min. The gummed sample was left with the cap off to promote crystallization. All solids obtained were initially analyzed by XRPD and stored in glass HPLC vials for subsequent analysis.
Any solids obtained were analyzed by XRPD, ^1H NMR, HPLC, TGA, DSC, XRPD post storage at 40° C./75% RH after 7 days & IC if necessary. Additional microscopy techniques (PLM & HSM) were used to complement the above analysis where appropriate.

[3] = High temperature solubility assessment; parameters: key: T = turbid solution; X = suspension; details: for observation at 60° C.: 30 mg in 50 volumes of the sample's solvent; for observation at 70° C. / observation at 80° C. / observation at 85° C.: 50 volumes
Protocol: Due to low solubility observed in the experiments of Example 2, a second solubility assessment of Structure (I) from Lot A was carried out using higher temperatures closer to the boiling points of the selected solvent systems (Table 10). Once at temperature, phosphoric acid or a base was added to either promote formation of a phosphate or Na/K salt.
Structure (I) (from Lot A, Free Form Pattern 1, 30 mg) was weighed into 6 HPLC vials and a stirrer bar added to each one. 50 volumes of different solvents were added to the samples according to Table 10 and the samples heated incrementally on a Polar Bear heating block, stirring at 400 RPM. Observations were noted as the temperature was increased, holding at each temperature for 10 minutes.

[4] = Static storage at 40° C./75% RH, XRPD and HPLC post storage; details: 7 days

- XRPD after 7 days [1]: Pattern 11
SMILES: Cc1cc(Nc2cc(N)ncn2)c(=O)n2c1C(=O)NC21CCC2(CC2)CC1 [Pattern 36-2]

- HPLC purity post storage at 40° C./75% RH ([2]; listed as 9-12): 98.8%
SMILES: Cc1cc(Nc2cc(N)ncn2)c(=O)n2c1C(=O)NC21CCC2(CC2)CC1 [Pattern 2]

- HPLC purity post storage at 40° C./75% RH [2]: 99.4%
- XRPD post storage at 40° C./75% RH [2]: SUL P2
SMILES: Cc1cc(Nc2cc(N)ncn2)c(=O)n2c1C(=O)NC21CCC2(CC2)CC1 [Pattern 22-8]

- observation at 60° C. [3]: T
- observation at 70° C. [3]: T
SMILES: Cc1cc(Nc2cc(N)ncn2)c(=O)n2c1C(=O)NC21CCC2(CC2)CC1 [Pattern 10-7]

- XRPD post storage at 40° C./75% RH [2]: converted to Free Form Pattern 3
- XRPD post storage at 40° C./75% RH ([4]; listed as 28-1): 7 days: Crystallization-Pattern 3 (WD)
SMILES: Cc1cc(Nc2cc(N)ncn2)c(=O)n2c1C(=O)NC21CCC2(CC2)CC1 [amorphous material]

- XRPD after 1 day ([1]; slurry in saturated THF/Water (9:1) solution): Patterns 3 and 11 +
SMILES: Cc1cc(Nc2cc(N)ncn2)c(=O)n2c1C(=O)NC21CCC2(CC2)CC1 [Pattern 38-1]

- HPLC purity post storage at 40° C./75% RH [2]: crystallinity. 97.0% purity observed.
SMILES: Cc1cc(Nc2cc(N)ncn2)c(=O)n2c1C(=O)NC21CCC2(CC2)CC1 [PHO Pattern 2]
- XRPD post storage at 40° C./75% RH [2]: lost a significant amount of crystallinity

- stability to storage at 40° C./75% RH (in words) [2]: stable to storage
- HPLC purity post storage at 40° C./75% RH ([2]; listed as 9-2): 97.7% purity
- XRPD post storage at 40° C./75% RH ([4]; listed as 9-2): No change by XRPD
SMILES: Cc1cc(Nc2cc(N)ncn2)c(=O)n2c1C(=O)NC21CCC2(CC2)CC1 [HCl Patterns 1 and 3]

- observation at 60° C. [3]: X
- observation at 70° C. [3]: X
- observation at 80° C. [3]: X
- observation at 85° C. [3]: X
SMILES: Cc1cc(Nc2cc(N)ncn2)c(=O)n2c1C(=O)NC21CCC2(CC2)CC1 [Pattern 10-3]

- change of chemical purity on storage at 40° C./75% RH (in words) [2]: slight uplift in purity
- stability to storage at 40° C./75% RH (in words) ([2]; listed as 9-1): behavior but not stable to storage
- XRPD post storage at 40° C./75% RH [2]: remained HBr Pattern 1
- HPLC purity post storage at 40° C./75% RH ([2]; listed as 9-1): 98.7% purity
- XRPD post storage at 40° C./75% RH ([4]; listed as 9-1): XRPD-HBr Pattern 1
SMILES: Cc1cc(Nc2cc(N)ncn2)c(=O)n2c1C(=O)NC21CCC2(CC2)CC1 [HBr Pattern 1]

- XRPD after 7 days [1]: Pattern 11
SMILES: Cc1cc(Nc2cc(N)ncn2)c(=O)n2c1C(=O)NC21CCC2(CC2)CC1 [Pattern 36-4]

SMILES: Cc1cc(Nc2cc(N)ncn2)c(=O)n2c1C(=O)NC21CCC2(CC2)CC1 [Pattern 5]
- XRPD post storage at 40° C./75% RH ([4]; listed as 30-2): transition completed and 7 days: Change in form-Pattern 3

- XRPD after 7 days [1]: Pattern 11 + extra
SMILES: Cc1cc(Nc2cc(N)ncn2)c(=O)n2c1C(=O)NC21CCC2(CC2)CC1 [Pattern 36-11]

- stability to storage at 40° C./75% RH (in words) ([2]; listed as 9-7): data. Form looks stable
- XRPD post storage at 40° C./75% RH [2]: consistent with Maleate Pattern 1
- HPLC purity post storage at 40° C./75% RH ([2]; listed as 9-7): 98.8% purity. Maleate
- XRPD post storage at 40° C./75% RH ([4]; listed as 9-7): pattern retained; very
SMILES: Cc1cc(Nc2cc(N)ncn2)c(=O)n2c1C(=O)NC21CCC2(CC2)CC1 [Maleate Pattern 1]

- XRPD after 7 days [1]: Pattern 11
SMILES: Cc1cc(Nc2cc(N)ncn2)c(=O)n2c1C(=O)NC21CCC2(CC2)CC1 [Pattern 36-1]

- observation at 60° C. [3]: X
- observation at 70° C. [3]: X
- observation at 80° C. [3]: X
- observation at 85° C. [3]: X
SMILES: Cc1cc(Nc2cc(N)ncn2)c(=O)n2c1C(=O)NC21CCC2(CC2)CC1 [Pattern 10-4]

- XRPD after 7 days [1]: Patterns 3 and 11
- XRPD after 17 days [1]: Pattern 11
SMILES: Cc1cc(Nc2cc(N)ncn2)c(=O)n2c1C(=O)NC21CCC2(CC2)CC1 [Pattern 36-15]

- XRPD after 7 days [1]: Patterns 3 and 11
- XRPD after 17 days [1]: Patterns 3 and 11
SMILES: Cc1cc(Nc2cc(N)ncn2)c(=O)n2c1C(=O)NC21CCC2(CC2)CC1 [Pattern 36-14]

- XRPD after 7 days [1]: Patterns 3 and 11
- XRPD after 17 days [1]: Patterns 3 and 11
SMILES: Cc1cc(Nc2cc(N)ncn2)c(=O)n2c1C(=O)NC21CCC2(CC2)CC1 [Pattern 36-13]

- HPLC purity post storage at 40° C./75% RH ([2]; listed as 22-6): 99.1%
- change of chemical purity on storage at 40° C./75% RH (in words) ([2]; listed as 21-1): Notable increase in purity after
- XRPD post storage at 40° C./75% RH ([4]; listed as 21-1): storage, with no observed impact
- XRPD post storage at 40° C./75% RH ([4]; listed as 22-6): Unchanged
SMILES: Cc1cc(Nc2cc(N)ncn2)c(=O)n2c1C(=O)NC21CCC2(CC2)CC1 [MES Pattern 2]

- XRPD after 7 days [1]: Pattern 11
SMILES: Cc1cc(Nc2cc(N)ncn2)c(=O)n2c1C(=O)NC21CCC2(CC2)CC1 [Pattern 36-5]

- XRPD after 7 days [1]: Pattern 11
SMILES: Cc1cc(Nc2cc(N)ncn2)c(=O)n2c1C(=O)NC21CCC2(CC2)CC1 [Pattern 36-7]

- change of chemical purity on storage at 40° C./75% RH (in words) [2]: slight uplift
- stability to storage at 40° C./75% RH (in words) [2]: stable to storage
- HPLC purity post storage at 40° C./75% RH ([2]; listed as 9-10): 98.8%
- XRPD post storage at 40° C./75% RH ([4]; listed as 9-10): Fumarate Pattern 1
SMILES: Cc1cc(Nc2cc(N)ncn2)c(=O)n2c1C(=O)NC21CCC2(CC2)CC1 [FUM Pattern 1]

- stability to storage at 40° C./75% RH (in words) [2]: not stable to storage
- HPLC purity post storage at 40° C./75% RH ([2]; listed as 9-6): 98.8%
SMILES: Cc1cc(Nc2cc(N)ncn2)c(=O)n2c1C(=O)NC21CCC2(CC2)CC1 [BES Pattern 1]

- observation at 60° C. [3]: T
- observation at 70° C. [3]: T
SMILES: Cc1cc(Nc2cc(N)ncn2)c(=O)n2c1C(=O)NC21CCC2(CC2)CC1 [Pattern 10-6]

- HPLC purity post storage at 40° C./75% RH ([2]; listed as 9-11): 98.8%
- XRPD post storage at 40° C./75% RH ([4]; listed as 9-11): Citrate Pattern 1
SMILES: Cc1cc(Nc2cc(N)ncn2)c(=O)n2c1C(=O)NC21CCC2(CC2)CC1 [CIT Pattern 1]

- observation at 60° C. [3]: X
- observation at 70° C. [3]: X
- observation at 80° C. [3]: X
- observation at 85° C. [3]: X
SMILES: Cc1cc(Nc2cc(N)ncn2)c(=O)n2c1C(=O)NC21CCC2(CC2)CC1 [Pattern 10-2]

- XRPD post storage at 40° C./75% RH [2]: large loss in crystallinity
- HPLC purity post storage at 40° C./75% RH ([2]; listed as 9-4): 99.3%
SMILES: Cc1cc(Nc2cc(N)ncn2)c(=O)n2c1C(=O)NC21CCC2(CC2)CC1 [TOS Pattern 1]

- observation at 60° C. [3]: T
- observation at 70° C. [3]: T
SMILES: Cc1cc(Nc2cc(N)ncn2)c(=O)n2c1C(=O)NC21CCC2(CC2)CC1 [Pattern 10-8]

- XRPD after 7 days [1]: Pattern 11
SMILES: Cc1cc(Nc2cc(N)ncn2)c(=O)n2c1C(=O)NC21CCC2(CC2)CC1 [Pattern 36-6]

- observation at 60° C. [3]: X
- observation at 70° C. [3]: X
SMILES: Cc1cc(Nc2cc(N)ncn2)c(=O)n2c1C(=O)NC21CCC2(CC2)CC1 [Pattern 10-1]

- observation at 60° C. [3]: X
- observation at 70° C. [3]: X
- observation at 80° C. [3]: X
- observation at 85° C. [3]: X
SMILES: Cc1cc(Nc2cc(N)ncn2)c(=O)n2c1C(=O)NC21CCC2(CC2)CC1 [Pattern 10-5]

- XRPD after 7 days [1]: Pattern 11
SMILES: Cc1cc(Nc2cc(N)ncn2)c(=O)n2c1C(=O)NC21CCC2(CC2)CC1 [Pattern 36-12]

- stability to storage at 40° C./75% RH (in words) [2]: instability to storage
- HPLC purity post storage at 40° C./75% RH ([2]; listed as 13-2): frit are not present. 95.7% purity
SMILES: Cc1cc(Nc2cc(N)ncn2)c(=O)n2c1C(=O)NC21CCC2(CC2)CC1 [HCl Pattern 4]

- XRPD after 7 days [1]: Patterns 3 and 11
- XRPD after 17 days [1]: Patterns 3 and 11
SMILES: Cc1cc(Nc2cc(N)ncn2)c(=O)n2c1C(=O)NC21CCC2(CC2)CC1 [Pattern 36-3]
